Source: ChEMBL document CHEMBL3297706, “Design, synthesis and evaluation of phenethylaminoheterocycles as K(v)1.5 inhibitors” (Bioorg Med Chem Lett, 2014)
Activity calls are given as the source filed them. No cut-off for these calls is given here.

Experiments:
[1] = target: T1, Potassium voltage-gated channel subfamily A member 5 (Homo sapiens, UniProt P22460); test: Inhibition of human Kv1.5 expressed in mouse L929 cells assessed as inhibition of current at 0.3 uM; format: cell-based
[2] = Clearance in Sprague-Dawley rat at 10 umol/kg, via carotid artery by LC-MS method; format: ADME, organism-based; conditions: in vivo
hERG (KCNH2) = hERG (KCNH2) (Homo sapiens, UniProt Q12809); test: Inhibition of human ERG at 10 uM
Chain of hERG (KCNH2) (Q12809 whole entry): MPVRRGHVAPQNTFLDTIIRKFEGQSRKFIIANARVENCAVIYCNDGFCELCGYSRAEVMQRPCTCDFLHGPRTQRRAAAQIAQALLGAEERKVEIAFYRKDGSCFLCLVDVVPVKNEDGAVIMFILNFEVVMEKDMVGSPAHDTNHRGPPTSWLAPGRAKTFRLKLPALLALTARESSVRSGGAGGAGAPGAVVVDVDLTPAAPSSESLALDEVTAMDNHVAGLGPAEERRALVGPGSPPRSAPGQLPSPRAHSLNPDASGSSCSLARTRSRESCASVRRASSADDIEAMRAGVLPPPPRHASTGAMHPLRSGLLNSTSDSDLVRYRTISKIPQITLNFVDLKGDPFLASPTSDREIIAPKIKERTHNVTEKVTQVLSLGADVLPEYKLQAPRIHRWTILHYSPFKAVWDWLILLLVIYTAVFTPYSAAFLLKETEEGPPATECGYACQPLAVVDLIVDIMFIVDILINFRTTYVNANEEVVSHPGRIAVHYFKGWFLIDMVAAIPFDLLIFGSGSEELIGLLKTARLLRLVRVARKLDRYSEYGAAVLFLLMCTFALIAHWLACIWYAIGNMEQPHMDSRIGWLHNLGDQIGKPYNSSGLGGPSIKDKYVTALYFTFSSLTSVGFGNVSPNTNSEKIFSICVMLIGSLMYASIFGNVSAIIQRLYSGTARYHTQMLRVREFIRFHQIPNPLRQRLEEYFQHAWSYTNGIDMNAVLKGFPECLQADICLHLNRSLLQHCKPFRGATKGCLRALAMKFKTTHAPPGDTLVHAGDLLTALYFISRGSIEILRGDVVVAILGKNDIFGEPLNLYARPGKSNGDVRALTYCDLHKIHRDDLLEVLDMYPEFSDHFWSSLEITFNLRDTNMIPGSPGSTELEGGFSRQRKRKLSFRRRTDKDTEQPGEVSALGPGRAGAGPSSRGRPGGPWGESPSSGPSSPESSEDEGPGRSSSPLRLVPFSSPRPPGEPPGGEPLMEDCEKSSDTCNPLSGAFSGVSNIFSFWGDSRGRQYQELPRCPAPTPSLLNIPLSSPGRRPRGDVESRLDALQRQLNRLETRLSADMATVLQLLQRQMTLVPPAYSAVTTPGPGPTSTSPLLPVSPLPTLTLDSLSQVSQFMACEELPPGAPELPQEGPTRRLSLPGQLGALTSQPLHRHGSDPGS

[3] = target: T1, Potassium voltage-gated channel subfamily A member 5; test: Inhibition of human Kv1.5 expressed in mouse L929 cells assessed as inhibition of current; format: cell-based
[4] = Permeability across apical to basolateral side in human Caco2 cells; format: ADME, cell-based; conditions: Caco-2, read-out: permeability
[5] = Half life in Sprague-Dawley rat at 10 umol/kg, via carotid artery by LC-MS method; format: ADME, organism-based; conditions: in vivo
[6] = Permeability of the compound by PAMPA; format: ADME; conditions: read-out: permeability
[7] = Volume of distribution at steady state in Sprague-Dawley rat at 10 umol/kg, via carotid artery by LC-MS method; format: ADME, organism-based; conditions: in vivo, read-out: Vdss
Oryctolagus cuniculus [8] = test: Anti-atrial fibrillation in rabbit assessed as atrial effective refractory period prolongation at 1 mg/kg; format: functional, Cardiac atrium
Plasma [9] = test: Plasma concentration in rabbit at 1 mg/kg; format: ADME, organism-based, Oryctolagus cuniculus; design: dose 1 mg/kg; conditions: in vivo
[10] = Plasma protein binding in rabbit; format: ADME, cell-free, Oryctolagus cuniculus; conditions: read-out: PPB (converted)
Oryctolagus cuniculus [11] = test: Anti-atrial fibrillation in rabbit assessed as increase in heart rate at 1 mg/kg; format: functional
Oryctolagus cuniculus [12] = test: Anti-atrial fibrillation in rabbit assessed as atrial effective refractory period prolongation at 3 mg/kg; format: functional, Cardiac atrium
Oryctolagus cuniculus [13] = test: Anti-atrial fibrillation in rabbit assessed as ventricular effective refractory period prolongation at 10 mg/kg; format: functional
Plasma [14] = test: Plasma concentration in rabbit at 3 mg/kg; format: ADME, organism-based, Oryctolagus cuniculus; design: dose 3 mg/kg; conditions: in vivo
Oryctolagus cuniculus [15] = test: Anti-atrial fibrillation in rabbit assessed as decrease in blood pressure at 3 mg/kg; format: functional
Oryctolagus cuniculus [16] = test: Anti-atrial fibrillation in rabbit assessed as decrease in blood pressure at 1 mg/kg; format: functional
Oryctolagus cuniculus [17] = species: Oryctolagus cuniculus; test: Anti-atrial fibrillation in rabbit assessed as atrial effective refractory period prolongation; format: functional, organism-based; conditions: Cardiac atrium
Oryctolagus cuniculus [18] = test: Anti-atrial fibrillation in rabbit assessed as increase in heart rate at 3 mg/kg; format: functional
Plasma [19] = test: Plasma concentration in rabbit at 10 mg/kg; format: ADME, organism-based, Oryctolagus cuniculus; design: dose 10 mg/kg; conditions: in vivo
Oryctolagus cuniculus [20] = test: Anti-atrial fibrillation in rabbit assessed as atrial effective refractory period prolongation at 10 mg/kg; format: functional, Cardiac atrium

T1 sequence (P22460 whole entry): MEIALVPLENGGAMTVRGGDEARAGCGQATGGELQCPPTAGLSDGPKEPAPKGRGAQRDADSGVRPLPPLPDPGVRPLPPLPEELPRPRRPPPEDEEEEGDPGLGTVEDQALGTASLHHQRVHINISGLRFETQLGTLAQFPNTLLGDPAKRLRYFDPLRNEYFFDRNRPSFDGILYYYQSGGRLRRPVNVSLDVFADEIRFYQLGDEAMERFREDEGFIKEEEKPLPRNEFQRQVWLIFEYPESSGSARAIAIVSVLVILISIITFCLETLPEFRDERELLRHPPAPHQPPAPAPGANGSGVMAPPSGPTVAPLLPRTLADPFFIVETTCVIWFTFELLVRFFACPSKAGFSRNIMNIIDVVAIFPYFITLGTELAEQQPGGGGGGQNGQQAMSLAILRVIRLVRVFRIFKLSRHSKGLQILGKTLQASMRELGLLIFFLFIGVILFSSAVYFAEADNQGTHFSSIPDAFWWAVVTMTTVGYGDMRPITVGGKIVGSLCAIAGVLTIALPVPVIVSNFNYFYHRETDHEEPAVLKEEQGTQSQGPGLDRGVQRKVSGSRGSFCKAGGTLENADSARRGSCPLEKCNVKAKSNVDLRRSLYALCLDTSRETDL

SMILES	clearance [2] [mL/min/kg]	IC50 [3] [nM]	half-life [5] [h]	Vd [7] [L/kg]	inhibition at 10 µM (hERG (KCNH2)) [%]	other results
CC(C)(CNc1noc2cccc(Cl)c12)c1ccccc1						inhibition [1]: 33%
COc1ccc2onc(NCC(C)(C)c3ccccc3)c2c1						inhibition [1]: 37%
COc1cccc2c1C(NCC(C)(C)c1ccccc1)=NC2=O	35	84	0.8	1.1	46	Papp A→B [4]: 27 ×10⁻⁶ cm/s; Papp [6]: 79 ×10⁻⁶ cm/s
COc1cccc2nc(O)nc(NCC(C)(C)c3ccccc3)c12		23			50	Papp [6]: 81.6 ×10⁻⁶ cm/s
COc1cccc2snc(NCC(C)(C)c3ccccc3)c12	28	25	1.8	3.9	68	
COc1cccc2ccnc(NCC(C)(C)c3ccccc3)c12	124	22	1.8	14	99	
COc1cccc2c1c(NCC(C)(C)c1ccccc1)nn2C	12	198	2.1	1.7	69	Papp A→B [4]: 2.3 ×10⁻⁶ cm/s; Activity (Oryctolagus cuniculus [8]): 6%; concentration (Plasma [9]): 300 nM; fraction unbound [10]: < 0.001
COc1ccc2c(NCC(C)(C)c3ccccc3)noc2c1						Papp A→B [4]: 3.6 ×10⁻⁶ cm/s; inhibition [1]: 21%
CCNC(=O)O[C@H]1CC[C@](CNc2n[nH]c3cccc(OC)c23)(c2ccccc2)CC1	21	138	1.3	1.4	52	Activity (Oryctolagus cuniculus [11]): 5%; Activity (Oryctolagus cuniculus [12]): 22%; Activity (Oryctolagus cuniculus [13]): inactive; Activity (Oryctolagus cuniculus [8]): 15%; concentration (Plasma [9]): 700 nM; Papp [6]: 67 ×10⁻⁶ cm/s; concentration (Plasma [14]): 2400 nM; inhibition in vivo at 3 mg/kg (Oryctolagus cuniculus [15]): 17%; inhibition in vivo at 1 mg/kg (Oryctolagus cuniculus [16]): 7%; Activity (Oryctolagus cuniculus [17]): Dose-dependent effect; fraction unbound [10]: 0.003; Activity (Oryctolagus cuniculus [18]): 16%
COc1cccc2ncnc(NCC(C)(C)c3ccccc3)c12		118			90	
COc1cccc2c1c(NCC(C)(C)c1ccccc1)nn2C(C)C						inhibition [1]: 42%
COc1cccc2oc(=O)nc(NCC(C)(C)c3ccccc3)c12	10	197	0.8	0.7	66	Papp [6]: 69.5 ×10⁻⁶ cm/s
COc1cccc2nc(Cl)nc(NCC(C)(C)c3ccccc3)c12		73			90	
COc1cccc2[nH]nc(NCC(C)(C)c3ccccc3)c12						Papp A→B [4]: 9.4 ×10⁻⁶ cm/s; inhibition [1]: 37%

More lines, main results first:

clearance [2] [mL/min/kg]	IC50 [3] [nM]	half-life [5] [h]	Vd [7] [L/kg]	SMILES	inhibition at 10 µM (hERG (KCNH2)) [%]	other results
8	88	1.4	0.6	CCNC(=O)O[C@H]1CC[C@](CNc2nn(C)c3cccc(OC)c23)(c2ccccc2)CC1	54	
	262			CC(C)(CNc1noc2cccc(O)c12)c1ccccc1		
	784			CC(C)(CNc1noc2ccccc12)c1ccccc1		Papp A→B [4]: 11.6 ×10⁻⁶ cm/s
	219			CCc1cccc2onc(NCC(C)(C)c3ccccc3)c12		
22	43	2.4	3.7	COc1cccc2onc(NCC(C)(C)c3ccccc3)c12		Activity (Oryctolagus cuniculus [13]): <5%; concentration (Plasma [19]): 8200 nM; Activity (Oryctolagus cuniculus [20]): <5%; fraction unbound [10]: < 0.001
	187			COc1cccc2onc(N(C)CC(C)(C)c3ccccc3)c12		
